The compounds below were run against T1, Xenopus laevis Aurora B/INCENP complex (Xenopus laevis, UniProt Q6DE08) (assay: Aurora-B kinase assay (radioactive enzyme inhibition assay)). Details: test substance at 1 μM; percentage of the positive control (maximum value without test substance).
T1 construct: equipped at the N-terminal position with a GST tag (amino acids 60-361); GST (N, cleaved yes); made in house; host or cells: E. coli BL21 (DE3)
Type: biochemical
Text: Example Aurora-B Kinase Assay
A radioactive enzyme inhibition assay was developed using E. coli-expressed recombinant Xenopus laevis Aurora B wild-type protein equipped at the N-terminal position with a GST tag (amino acids 60-361) in a complex with Xenopus laevis INCENP (amino acids 790-847), which is obtained from bacteria and purified. In equivalent manner a Xenopus laevis Aurora B mutant (G96V) in a complex with Xenopus laevis INCENP^790-847 may also be used.
Expression and Purification
The coding sequence for Aurora-B^60-361 from Xenopus laevis is cloned into a modified version of pGEX-6T (Amersham Biotech) via BamHI and SalI cutting sites. The vector contains two cloning cassettes which are separated by a ribosomal binding site, allowing bi-cistronic expression. In this configuration Xenopus laevis Aurora B is expressed by the first cassette, and the Xenopus laevis INCENP^790-847 is expressed by the second cassette. The resulting vector is pAUB-IN^847.
First of all the E. coli strain BL21 (DE3) is co-transformed with pUBS520 helper plasmid and pAUB-IN^847, after which protein expression is induced using 0.3 mM IPTG at an OD600 of 0.45-0.7. The expression is then continued for approx. 12-16 h at 23-25° C. with agitation.
The bacteria are then removed by centrifuging and the pellet is lysed in lysis buffer (50 mM Tris/Cl pH 7.6, 300 mM NaCl, 1 mM DTT, 1 mM EDTA, 5% glycerol, Roche Complete Protease Inhibitor tablets) using ultrasound, using 20-30 mL lysis buffer per liter of E. coli culture. The lysed material is freed from debris by centrifugation (12000 rpm, 45-60 min, JA20 rotor). The supernatant is incubated with 300 μL of equilibrated GST Sepharose Fast Flow (Amersham Biosciences) per liter of E. coli culture for 4-5 h at 4° C. Then the column material is washed with 30 volumes of lysis buffer and then equilibrated with 30 volumes of cleavage buffer (50 mM Tris/Cl pH 7.6, 150 mM NaCl, 1 mM DTT, 1 mM EDTA). To cleave the GST tag from Aurora B, 10 units of Prescission Protease (Amersham Biosciences) are used per milligram of substrate and the mixture is incubated for 16 h at 4° C. The supernatant which contains the cleavage product is loaded onto a 6 mL Resource Q column (Amersham Biosciences) equilibrated with ion exchange buffer (50 mM Tris/Cl pH 7.6, 150 mM NaCl, 1 mM DTT, 1 mM EDTA). The Aurora B/INCENP complex is caught as it flows through, then concentrated and loaded onto a Superdex 200 size exclusion chromatography (SEC) column equilibrated with SEC buffer (10 mM Tris/Cl pH 7.6, 150 mM NaCl, 1 mM DTT, 1 mM EDTA). Fractions which contain the AuroraB/INCENP complex are collected and concentrated using Vivaspin concentrators (molecular weight exclusion 3000-5000 Da) to a final concentration of 12 mg/mL. Aliquots (e.g. 240 ng/μL) for kinase assays are transferred from this stock solution into freezing buffer (50 mM Tris/Cl pH 8.0, 150 mM NaCl, 0.1 mM EDTA, 0.03% Brij-35, 10% glycerol, 1 mM DTT) and stored at −80° C.
Test substances are placed in a polypropylene dish (96 wells, Greiner #655 201), in order to cover a concentration frame of 10 μM-0.0001 μM. The final concentration of DMSO in the assay is 5%. 30 μL of protein mix (50 mM tris/Cl pH 7.5, 25 mM MgCl2, 25 mM NaCl, 167 μM ATP, 10 ng Xenopus laevis Aurora B/INCENP complex in freezing buffer) are pipetted into the 10 μl of test substance provided in 25% DMSO and this is incubated for 15 min at RT. Then 10 μL of peptide mix (100 mM tris/Cl pH 7.5, 50 mM MgCl2, 50 mM NaCl, 5 μM NaF, 5 μM DTT, 1 μCi gamma-P33-ATP [Amersham], 50 μM substrate peptide [biotin-[…] or multimers thereof, or biotin-[…] or multimers thereof, or biotin-[…]]) are added. The reaction is incubated for 75 min (ambient temperature) and stopped by the addition of 180 μL of 6.4% trichloroacetic acid and incubated for 20 min on ice. […]

T1 sequence (Q6DE08 60-361): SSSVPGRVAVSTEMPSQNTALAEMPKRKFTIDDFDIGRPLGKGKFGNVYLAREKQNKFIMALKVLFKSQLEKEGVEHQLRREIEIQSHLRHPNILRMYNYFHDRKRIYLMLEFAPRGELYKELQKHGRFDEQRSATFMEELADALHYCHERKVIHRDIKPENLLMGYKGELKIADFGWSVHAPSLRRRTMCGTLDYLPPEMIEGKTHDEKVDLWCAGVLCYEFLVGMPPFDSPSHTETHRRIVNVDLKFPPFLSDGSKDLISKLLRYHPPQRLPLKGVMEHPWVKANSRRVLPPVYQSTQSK
T1 sequence (O13024 790-847 partner limits assumed): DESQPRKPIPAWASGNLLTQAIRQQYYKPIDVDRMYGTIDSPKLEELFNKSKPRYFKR

Compound	remaining activity at 1 µM [%]
CC(C)Nc1ccc(-c2ccc3c(c2)NC(=O)/C3=C(\Nc2ccc(C(=O)N3CCN(C4CC4)CC3)cc2)c2ccccc2)cn1 [Example 126]	5.84
CC(C)Nc1ccc(-c2ccc3c(c2)NC(=O)/C3=C(\Nc2ccc(C(=O)N3CCC[C@H]3CN3CCCC3)cc2)c2ccccc2)cn1 [Example 127]	4.67
CC(C)Nc1ccc(-c2ccc3c(c2)NC(=O)/C3=C(\Nc2ccc(C(=O)N3CCC(N(C)C)CC3)cc2)c2ccccc2)cn1 [Example 128]	4.34
CC(C)Nc1ccc(-c2ccc3c(c2)NC(=O)/C3=C(\Nc2ccc(C(=O)N3CCN(C4CCOCC4)CC3)cc2)c2ccccc2)cn1 [Example 129]	4.55
CC(C)Nc1ccc(-c2ccc3c(c2)NC(=O)/C3=C(\Nc2ccc(C(=O)N3CCC[C@@H]3CN3CCCC3)cc2)c2ccccc2)cn1 [Example 130]	1.43
CC(C)Nc1ccc(-c2ccc3c(c2)NC(=O)/C3=C(\Nc2ccc(C(=O)N3C[C@H]4C[C@@H]3CN4C)cc2)c2ccccc2)cn1 [Example 131]	5.48
CC(C)Nc1ccc(-c2ccc3c(c2)NC(=O)/C3=C(\Nc2ccc(C(=O)N3CCN[C@@H](C)C3)cc2)c2ccccc2)cn1 [Example 133]	0.55
CC(C)Nc1ccc(-c2ccc3c(c2)NC(=O)/C3=C(\Nc2ccc(C(=O)NCCN(C)C)cc2)c2ccccc2)cn1 [Example 134]	1.43
CC(C)Nc1ccc(-c2ccc3c(c2)NC(=O)/C3=C(\Nc2ccc(C(=O)N3CCN(C)CC3)cc2)c2ccccc2)cn1 [Example 135]	0.77
CC(C)Nc1ccc(-c2ccc3c(c2)NC(=O)/C3=C(\Nc2ccc(C(=O)N3CC[C@H](N(C)C)C3)cc2)c2ccccc2)cn1 [Example 136]	0.48
CC(C)Nc1ccc(-c2ccc3c(c2)NC(=O)/C3=C(\Nc2ccc(C(=O)N3CC[C@@H](N(C)C)C3)cc2)c2ccccc2)cn1 [Example 137]	0.67
CC(C)Nc1ccc(-c2ccc3c(c2)NC(=O)/C3=C(\Nc2ccc(C(=O)N(C)CCN(C)C)cc2)c2ccccc2)cn1 [Example 138]	0.68
CC(C)Nc1ccc(-c2ccc3c(c2)NC(=O)/C3=C(\Nc2ccc(C(=O)N(C)C3CCN(C)CC3)cc2)c2ccccc2)cn1 [Example 139]	0.88
CC(C)Nc1ccc(-c2ccc3c(c2)NC(=O)/C3=C(\Nc2ccc(C(=O)NC3CCN(C)CC3)cc2)c2ccccc2)cn1 [Example 140]	2.26
CNC(=O)C#Cc1cc2c(cc1S(=O)(=O)c1ccc(F)cc1)/C(=C(/Nc1ccc(CN(C)C)cc1)c1ccccc1)C(=O)N2 [Example 151]	1.89
CCNC(=O)C#Cc1cc2c(cc1S(=O)(=O)N1CC(F)(F)C1)/C(=C(/Nc1ccc(N3CCN(C)CC3)cc1)c1ccccc1)C(=O)N2 [Example 152]	4.33
CNCC#Cc1cc2c(cc1S(=O)(=O)N1CC(F)(F)C1)/C(=C(/Nc1ccccc1)c1ccccc1)C(=O)N2 [Example 153]	1.2
CN1CCN(c2ccc(N/C(=C3\C(=O)Nc4cc(C#CC(=O)NC5CCC5)c(S(=O)(=O)N5CCC(F)(F)C5)cc43)c3ccccc3)cc2)CC1 [Example 154]	2.62
CN(C)Cc1ccc(N/C(=C2\C(=O)Nc3cc(C#CC(=O)NC4CCC4)c(F)cc32)c2ccccc2)cc1 [Example 155]	8.61
CC(C)NC(=O)C#Cc1cc2c(cc1S(=O)(=O)N1CC(F)(F)C1)/C(=C(/Nc1ccc(N3CCN(C)CC3)cc1)c1ccccc1)C(=O)N2 [Example 156]	3.02
CNCC#Cc1cc2c(cc1S(=O)(=O)c1ccc(F)cc1)/C(=C(/Nc1ccccc1)c1ccccc1)C(=O)N2 [Example 157]	1.98

Compound	remaining activity at 1 µM [%]
CNC(=O)C#Cc1cc2c(cc1F)/C(=C(/Nc1ccc(CN(C)C)cc1)c1ccccc1)C(=O)N2 [Example 158]	7.53
CN(C)Cc1ccc(N/C(=C2\C(=O)Nc3cc(C#CC(=O)NC4CC4)ccc32)c2ccccc2)cc1 [Example 159]	2.07
CCNC(=O)C#Cc1ccc2c(c1)NC(=O)/C2=C(\Nc1ccc(N2CCN(C)CC2)cc1)c1ccccc1 [Example 160]	1.39
CN(C)Cc1ccc(N/C(=C2\C(=O)Nc3cc(C#CC(=O)Nc4ccccc4)ccc32)c2ccccc2)cc1 [Example 161]	1.69
CCNC(=O)C#Cc1ccc2c(c1)NC(=O)/C2=C(\Nc1ccc(CN(C)C)cc1)c1ccccc1 [Example 162]	1.65
CN(C)Cc1ccc(N/C(=C2\C(=O)Nc3cc(C#CC(=O)NC4CCCC4)ccc32)c2ccccc2)cc1 [Example 163]	2.08
CN1CCN(c2ccc(N/C(=C3\C(=O)Nc4cc(C#CC(=O)NC5CCCC5)ccc43)c3ccccc3)cc2)CC1 [Example 164]	3.17
CN(C)Cc1ccc(N/C(=C2\C(=O)Nc3cc(C#CC(=O)NC4CCC4)ccc32)c2ccccc2)cc1 [Example 165]	2.4
CN(C)Cc1ccc(N/C(=C2\C(=O)Nc3cc(C#CC(=O)NCCO)ccc32)c2ccccc2)cc1 [Example 166]	1.93
CN(C)Cc1ccc(N/C(=C2\C(=O)Nc3cc(C#CC(=O)NCC(F)F)ccc32)c2ccccc2)cc1 [Example 167]	2.96
O=C(C#Cc1ccc2c(c1)NC(=O)/C2=C(\Nc1ccc(CN2CCCC2)cc1)c1ccccc1)NCC(F)F [Example 168]	1.85
O=C(C#Cc1ccc2c(c1)NC(=O)/C2=C(\Nc1ccc(CN2CCCC2)cc1)c1ccccc1)NCCF [Example 169]	1.71
O=C(C#Cc1ccc2c(c1)NC(=O)/C2=C(\Nc1ccc(CN2CCCC2)cc1)c1ccccc1)Nc1ccccc1F [Example 170]	1.39
C[C@H](CO)NC(=O)C#Cc1ccc2c(c1)NC(=O)/C2=C(\Nc1ccc(CN(C)C)cc1)c1ccccc1 [Example 171]	3.39
C[C@H](CO)NC(=O)C#Cc1ccc2c(c1)NC(=O)/C2=C(\Nc1ccc(CN2CCCC2)cc1)c1ccccc1 [Example 172]	3.21
O=C(C#Cc1ccc2c(c1)NC(=O)/C2=C(\Nc1ccc(CN2CCCC2)cc1)c1ccccc1)Nc1cccc(Cl)c1 [Example 173]	3.68
O=C(C#Cc1ccc2c(c1)NC(=O)/C2=C(\Nc1ccc(CN2CCCC2)cc1)c1ccccc1)Nc1ccccc1 [Example 174]	2.67
CCNC(=O)C#Cc1ccc2c(c1)NC(=O)/C2=C(\Nc1ccc(CN2CCCC2)cc1)c1ccccc1 [Example 175]	3.04
CCNC(=O)C#Cc1ccc2c(c1)NC(=O)/C2=C(\Nc1ccc(CN(C)C)c(F)c1)c1ccccc1 [Example 176]	1.65
CCNC(=O)C#Cc1ccc2c(c1)NC(=O)/C2=C(\Nc1ccc(CN(C)C)c(Cl)c1)c1ccccc1 [Example 177]	1.83
